Assay results: patent EP1068346B1, “NUCLEOTIDE ACTIVATED DISACCHARIDES AND OLIGOSACCHARIDES AND METHOD FOR THE PRODUCTION THEREOF” (Forschungszentrum Jülich GmbH, priority 1998, dated 1999)

Format: physicochemical
Method: Insgesamt wurden 4.21 mg UDP-LacNAc isoliert (Gesamtausbeute: 5.2%). Die Substanz ist mindestens 6 Monate bei -20°C stabil. UDP-LacNAc wurde durch NMR-Spektroskopie und Massenspektrometrie charakterisiert. (Fig.1-4)

Gal(β1-4)GlcNAc(α1-UDP [UDP-LacNAc]
stabil: ≥ 6 Monate
